# Target: T1, Serine/threonine-protein kinase PLK4 (Homo sapiens) (UniProt O00444)
# T1 sequence (whole entry): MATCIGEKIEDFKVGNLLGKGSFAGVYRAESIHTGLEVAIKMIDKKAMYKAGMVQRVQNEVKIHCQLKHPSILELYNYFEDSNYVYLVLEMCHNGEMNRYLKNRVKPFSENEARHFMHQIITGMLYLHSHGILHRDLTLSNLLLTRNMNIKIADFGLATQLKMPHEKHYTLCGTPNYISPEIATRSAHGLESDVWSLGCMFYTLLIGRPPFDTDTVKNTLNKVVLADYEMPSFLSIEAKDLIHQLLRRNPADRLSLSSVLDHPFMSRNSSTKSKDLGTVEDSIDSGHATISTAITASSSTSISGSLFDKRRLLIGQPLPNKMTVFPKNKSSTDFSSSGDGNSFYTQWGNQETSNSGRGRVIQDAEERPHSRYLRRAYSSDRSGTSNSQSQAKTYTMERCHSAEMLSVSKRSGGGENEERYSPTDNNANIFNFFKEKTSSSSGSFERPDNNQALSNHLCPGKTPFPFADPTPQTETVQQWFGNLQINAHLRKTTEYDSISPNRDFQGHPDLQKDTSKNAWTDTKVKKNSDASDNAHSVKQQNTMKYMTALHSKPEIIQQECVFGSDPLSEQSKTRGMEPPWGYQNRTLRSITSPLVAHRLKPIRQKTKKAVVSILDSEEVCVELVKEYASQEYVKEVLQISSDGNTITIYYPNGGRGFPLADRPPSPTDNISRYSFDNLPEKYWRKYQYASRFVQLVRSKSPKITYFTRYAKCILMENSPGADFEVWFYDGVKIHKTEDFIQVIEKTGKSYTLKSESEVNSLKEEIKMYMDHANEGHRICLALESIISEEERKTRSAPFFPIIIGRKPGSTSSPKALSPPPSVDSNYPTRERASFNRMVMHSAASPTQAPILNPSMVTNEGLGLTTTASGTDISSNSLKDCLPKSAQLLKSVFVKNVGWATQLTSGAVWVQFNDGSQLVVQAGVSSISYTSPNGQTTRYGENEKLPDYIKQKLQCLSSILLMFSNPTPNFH
row,ΔTm [°C],SMILES
1,1.5,COc1cc2c(cc1OC)-c1n[nH]c(Nc3cccc(F)c3)c1C2
2,1.3,Cc1cc(Nc2nc(-c3ccccc3)nc3ccccc23)n[nH]1

row,SMILES,ΔTm [°C]
1,NCCNc1ncc(C(N)=O)c(Nc2cccc(C(F)(F)F)c2)n1,0.3

# Target: Mitogen-activated protein kinase 11 (Homo sapiens, UniProt Q15759)
# Sequence (Q15759 whole entry): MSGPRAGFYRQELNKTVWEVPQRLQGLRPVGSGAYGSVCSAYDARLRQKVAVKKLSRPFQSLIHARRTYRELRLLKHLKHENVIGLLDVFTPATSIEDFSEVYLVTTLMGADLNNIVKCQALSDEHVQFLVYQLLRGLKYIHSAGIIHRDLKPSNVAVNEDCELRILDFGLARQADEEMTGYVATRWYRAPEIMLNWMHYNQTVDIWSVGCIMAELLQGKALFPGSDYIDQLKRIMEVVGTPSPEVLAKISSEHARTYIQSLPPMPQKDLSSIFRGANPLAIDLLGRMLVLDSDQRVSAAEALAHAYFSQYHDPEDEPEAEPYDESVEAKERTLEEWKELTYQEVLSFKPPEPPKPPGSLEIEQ
row,ΔTm [°C],SMILES
1,0.1,COc1cc2c(cc1OC)-c1n[nH]c(Nc3cccc(F)c3)c1C2
2,0.1,Cc1cc(Nc2nc(-c3ccccc3)nc3ccccc23)n[nH]1

row,SMILES,ΔTm [°C]
1,NCCNc1ncc(C(N)=O)c(Nc2cccc(C(F)(F)F)c2)n1,2

# Target: Serine/threonine-protein kinase PAK 5 (Homo sapiens) (UniProt Q9P286)
row,ΔTm [°C],SMILES
1,-0.1,COc1cc2c(cc1OC)-c1n[nH]c(Nc3cccc(F)c3)c1C2
2,5.2,Cc1cc(Nc2nc(-c3ccccc3)nc3ccccc23)n[nH]1

row,SMILES,ΔTm [°C]
1,NCCNc1ncc(C(N)=O)c(Nc2cccc(C(F)(F)F)c2)n1,5.2

# Target: T2, Serine/threonine-protein kinase Nek2 (Homo sapiens) (UniProt P51955)
# T2 sequence (whole entry): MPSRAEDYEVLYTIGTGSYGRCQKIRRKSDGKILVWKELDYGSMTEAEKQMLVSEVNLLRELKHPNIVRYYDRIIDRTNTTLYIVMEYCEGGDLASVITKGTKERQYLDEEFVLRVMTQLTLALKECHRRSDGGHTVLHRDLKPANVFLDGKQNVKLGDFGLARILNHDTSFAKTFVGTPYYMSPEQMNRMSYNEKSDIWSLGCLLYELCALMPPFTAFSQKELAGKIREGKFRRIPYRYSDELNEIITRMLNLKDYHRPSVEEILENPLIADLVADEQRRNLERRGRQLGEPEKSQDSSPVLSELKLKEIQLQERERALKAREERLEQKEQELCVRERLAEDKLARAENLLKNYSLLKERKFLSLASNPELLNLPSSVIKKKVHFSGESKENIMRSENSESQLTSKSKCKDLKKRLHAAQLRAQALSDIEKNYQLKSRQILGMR
row,ΔTm [°C],SMILES
1,0.6,COc1cc2c(cc1OC)-c1n[nH]c(Nc3cccc(F)c3)c1C2
2,3,Cc1cc(Nc2nc(-c3ccccc3)nc3ccccc23)n[nH]1

row,SMILES,ΔTm [°C]
1,NCCNc1ncc(C(N)=O)c(Nc2cccc(C(F)(F)F)c2)n1,0.2

# Target: STE20-like serine/threonine-protein kinase (Homo sapiens) (UniProt Q9H2G2)
# Sequence (Q9H2G2 whole entry, looked up): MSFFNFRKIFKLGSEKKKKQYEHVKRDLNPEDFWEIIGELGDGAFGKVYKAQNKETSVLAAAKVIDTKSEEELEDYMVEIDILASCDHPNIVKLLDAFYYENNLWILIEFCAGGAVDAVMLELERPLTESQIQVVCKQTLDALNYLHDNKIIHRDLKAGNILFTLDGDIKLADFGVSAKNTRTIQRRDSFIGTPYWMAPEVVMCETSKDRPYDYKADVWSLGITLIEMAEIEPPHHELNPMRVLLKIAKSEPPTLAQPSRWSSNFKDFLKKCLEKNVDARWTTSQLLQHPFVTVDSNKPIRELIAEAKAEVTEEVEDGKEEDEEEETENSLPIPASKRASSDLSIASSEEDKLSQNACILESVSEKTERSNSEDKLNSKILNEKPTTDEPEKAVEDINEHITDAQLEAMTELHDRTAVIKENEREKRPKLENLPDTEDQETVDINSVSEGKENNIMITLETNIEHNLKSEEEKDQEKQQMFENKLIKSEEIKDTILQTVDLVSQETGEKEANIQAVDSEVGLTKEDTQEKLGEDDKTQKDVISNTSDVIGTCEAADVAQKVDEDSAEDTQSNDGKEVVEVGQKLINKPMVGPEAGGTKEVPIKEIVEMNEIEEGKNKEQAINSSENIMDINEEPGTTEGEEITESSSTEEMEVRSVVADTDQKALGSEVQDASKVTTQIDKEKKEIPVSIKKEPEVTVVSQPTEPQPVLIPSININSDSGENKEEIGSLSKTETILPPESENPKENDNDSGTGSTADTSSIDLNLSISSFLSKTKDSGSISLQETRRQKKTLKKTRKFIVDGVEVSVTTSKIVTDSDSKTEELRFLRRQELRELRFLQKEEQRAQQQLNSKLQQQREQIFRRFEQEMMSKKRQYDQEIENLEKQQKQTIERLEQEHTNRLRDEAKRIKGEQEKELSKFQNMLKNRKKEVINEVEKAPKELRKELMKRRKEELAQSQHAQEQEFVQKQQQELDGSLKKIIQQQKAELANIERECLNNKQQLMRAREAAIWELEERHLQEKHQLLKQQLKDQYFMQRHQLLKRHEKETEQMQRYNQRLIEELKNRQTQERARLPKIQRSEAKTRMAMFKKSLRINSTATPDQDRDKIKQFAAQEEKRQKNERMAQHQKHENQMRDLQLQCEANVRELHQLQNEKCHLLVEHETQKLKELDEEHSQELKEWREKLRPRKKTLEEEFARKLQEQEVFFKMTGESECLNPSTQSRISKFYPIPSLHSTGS
row,ΔTm [°C],SMILES
1,2.1,COc1cc2c(cc1OC)-c1n[nH]c(Nc3cccc(F)c3)c1C2
2,7.1,Cc1cc(Nc2nc(-c3ccccc3)nc3ccccc23)n[nH]1

row,SMILES,ΔTm [°C]
1,NCCNc1ncc(C(N)=O)c(Nc2cccc(C(F)(F)F)c2)n1,0.1

# Target: Ribosomal protein S6 kinase alpha-3 (Homo sapiens) (UniProt P51812)
row,ΔTm [°C],SMILES
1,2.8,COc1cc2c(cc1OC)-c1n[nH]c(Nc3cccc(F)c3)c1C2
2,6.4,Cc1cc(Nc2nc(-c3ccccc3)nc3ccccc23)n[nH]1

row,SMILES,ΔTm [°C]
1,NCCNc1ncc(C(N)=O)c(Nc2cccc(C(F)(F)F)c2)n1,2.6

# Target: Glycogen synthase kinase-3 beta (Homo sapiens, UniProt P49841)
# Sequence (P49841 whole entry, looked up): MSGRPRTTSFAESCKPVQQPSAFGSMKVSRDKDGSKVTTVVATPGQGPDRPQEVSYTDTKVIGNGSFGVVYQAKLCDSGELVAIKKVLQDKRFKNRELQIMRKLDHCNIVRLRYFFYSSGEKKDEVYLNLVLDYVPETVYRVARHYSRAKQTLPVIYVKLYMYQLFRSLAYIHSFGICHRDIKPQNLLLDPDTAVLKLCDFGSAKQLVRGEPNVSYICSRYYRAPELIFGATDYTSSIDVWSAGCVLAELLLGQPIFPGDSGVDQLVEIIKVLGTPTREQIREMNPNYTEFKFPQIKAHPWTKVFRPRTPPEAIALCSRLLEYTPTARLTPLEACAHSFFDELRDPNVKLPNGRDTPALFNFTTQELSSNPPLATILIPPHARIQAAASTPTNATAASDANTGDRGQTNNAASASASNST
row,ΔTm [°C],SMILES
1,2.9,COc1cc2c(cc1OC)-c1n[nH]c(Nc3cccc(F)c3)c1C2
2,8.6,Cc1cc(Nc2nc(-c3ccccc3)nc3ccccc23)n[nH]1

row,SMILES,ΔTm [°C]
1,NCCNc1ncc(C(N)=O)c(Nc2cccc(C(F)(F)F)c2)n1,8.1

# Target: T3, 3-phosphoinositide-dependent protein kinase 1 (Homo sapiens) (UniProt O15530)
# T3 sequence (whole entry): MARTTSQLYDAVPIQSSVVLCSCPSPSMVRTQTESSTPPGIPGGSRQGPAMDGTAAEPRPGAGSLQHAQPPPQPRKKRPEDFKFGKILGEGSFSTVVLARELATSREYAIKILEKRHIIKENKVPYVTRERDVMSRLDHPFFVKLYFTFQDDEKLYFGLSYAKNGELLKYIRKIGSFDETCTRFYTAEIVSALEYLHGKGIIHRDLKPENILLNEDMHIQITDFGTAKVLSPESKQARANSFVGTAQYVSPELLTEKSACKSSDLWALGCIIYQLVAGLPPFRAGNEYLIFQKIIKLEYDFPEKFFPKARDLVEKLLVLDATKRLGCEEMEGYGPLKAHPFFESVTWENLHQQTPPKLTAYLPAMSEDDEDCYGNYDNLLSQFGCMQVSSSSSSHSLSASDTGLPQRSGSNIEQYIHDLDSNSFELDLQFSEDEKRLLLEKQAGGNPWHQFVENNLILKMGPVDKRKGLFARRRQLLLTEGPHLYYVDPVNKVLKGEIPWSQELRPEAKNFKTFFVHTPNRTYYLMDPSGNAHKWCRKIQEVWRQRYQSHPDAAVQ
row,ΔTm [°C],SMILES
1,-0.2,COc1cc2c(cc1OC)-c1n[nH]c(Nc3cccc(F)c3)c1C2
2,-0.4,Cc1cc(Nc2nc(-c3ccccc3)nc3ccccc23)n[nH]1

row,SMILES,ΔTm [°C]
1,NCCNc1ncc(C(N)=O)c(Nc2cccc(C(F)(F)F)c2)n1,5.5

# Target: Calcium/calmodulin-dependent protein kinase type 1D (Homo sapiens) (UniProt Q8IU85)
# Sequence (Q8IU85 whole entry, looked up): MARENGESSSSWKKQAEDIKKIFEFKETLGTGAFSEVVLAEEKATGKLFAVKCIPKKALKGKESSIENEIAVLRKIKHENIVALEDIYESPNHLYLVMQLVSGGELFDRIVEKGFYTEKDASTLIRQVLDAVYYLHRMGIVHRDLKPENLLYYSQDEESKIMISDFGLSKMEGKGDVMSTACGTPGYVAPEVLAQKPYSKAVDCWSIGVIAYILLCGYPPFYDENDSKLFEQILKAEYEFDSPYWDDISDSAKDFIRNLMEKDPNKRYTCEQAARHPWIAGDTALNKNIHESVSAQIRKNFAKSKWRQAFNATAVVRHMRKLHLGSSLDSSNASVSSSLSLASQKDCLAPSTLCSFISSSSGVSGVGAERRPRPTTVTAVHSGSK
row,ΔTm [°C],SMILES
1,0.3,COc1cc2c(cc1OC)-c1n[nH]c(Nc3cccc(F)c3)c1C2
2,3.5,Cc1cc(Nc2nc(-c3ccccc3)nc3ccccc23)n[nH]1

row,SMILES,ΔTm [°C]
1,NCCNc1ncc(C(N)=O)c(Nc2cccc(C(F)(F)F)c2)n1,5.1

# Target: Serine/threonine-protein kinase pim-1 (Homo sapiens) (UniProt P11309)
# Sequence (P11309 whole entry, looked up): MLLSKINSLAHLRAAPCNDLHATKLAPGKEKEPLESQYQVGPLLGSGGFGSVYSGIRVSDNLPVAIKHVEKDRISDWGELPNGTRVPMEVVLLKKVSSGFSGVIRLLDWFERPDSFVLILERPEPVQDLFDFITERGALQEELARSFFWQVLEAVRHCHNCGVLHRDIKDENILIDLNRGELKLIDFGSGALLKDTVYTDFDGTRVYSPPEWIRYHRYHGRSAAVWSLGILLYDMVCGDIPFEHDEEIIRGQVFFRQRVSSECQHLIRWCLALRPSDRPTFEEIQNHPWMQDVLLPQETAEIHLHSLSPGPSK
row,ΔTm [°C],SMILES
1,0.5,COc1cc2c(cc1OC)-c1n[nH]c(Nc3cccc(F)c3)c1C2
2,1.7,Cc1cc(Nc2nc(-c3ccccc3)nc3ccccc23)n[nH]1

row,SMILES,ΔTm [°C]
1,NCCNc1ncc(C(N)=O)c(Nc2cccc(C(F)(F)F)c2)n1,5.7

# Target: Serine/threonine-protein kinase Chk2 (Homo sapiens, UniProt O96017)
# Sequence (O96017 whole entry): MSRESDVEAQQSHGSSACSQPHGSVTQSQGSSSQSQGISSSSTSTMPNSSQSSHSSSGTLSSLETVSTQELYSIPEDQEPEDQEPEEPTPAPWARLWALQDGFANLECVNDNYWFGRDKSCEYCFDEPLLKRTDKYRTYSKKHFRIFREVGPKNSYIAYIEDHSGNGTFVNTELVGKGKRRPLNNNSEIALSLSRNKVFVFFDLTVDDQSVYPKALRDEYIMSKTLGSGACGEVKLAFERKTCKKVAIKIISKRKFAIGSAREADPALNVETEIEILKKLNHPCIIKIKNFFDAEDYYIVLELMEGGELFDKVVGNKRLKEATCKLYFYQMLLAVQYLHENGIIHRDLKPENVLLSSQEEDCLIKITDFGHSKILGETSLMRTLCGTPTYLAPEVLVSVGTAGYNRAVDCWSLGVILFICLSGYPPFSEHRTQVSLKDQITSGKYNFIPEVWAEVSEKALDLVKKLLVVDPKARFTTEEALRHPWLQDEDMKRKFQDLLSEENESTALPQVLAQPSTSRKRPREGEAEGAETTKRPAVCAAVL
row,ΔTm [°C],SMILES
1,-0.1,COc1cc2c(cc1OC)-c1n[nH]c(Nc3cccc(F)c3)c1C2
2,5.7,Cc1cc(Nc2nc(-c3ccccc3)nc3ccccc23)n[nH]1

row,SMILES,ΔTm [°C]
1,NCCNc1ncc(C(N)=O)c(Nc2cccc(C(F)(F)F)c2)n1,6.6

# Target: Dual specificity protein kinase CLK1 (Homo sapiens) (UniProt P49759)
# Sequence (P49759 whole entry, looked up): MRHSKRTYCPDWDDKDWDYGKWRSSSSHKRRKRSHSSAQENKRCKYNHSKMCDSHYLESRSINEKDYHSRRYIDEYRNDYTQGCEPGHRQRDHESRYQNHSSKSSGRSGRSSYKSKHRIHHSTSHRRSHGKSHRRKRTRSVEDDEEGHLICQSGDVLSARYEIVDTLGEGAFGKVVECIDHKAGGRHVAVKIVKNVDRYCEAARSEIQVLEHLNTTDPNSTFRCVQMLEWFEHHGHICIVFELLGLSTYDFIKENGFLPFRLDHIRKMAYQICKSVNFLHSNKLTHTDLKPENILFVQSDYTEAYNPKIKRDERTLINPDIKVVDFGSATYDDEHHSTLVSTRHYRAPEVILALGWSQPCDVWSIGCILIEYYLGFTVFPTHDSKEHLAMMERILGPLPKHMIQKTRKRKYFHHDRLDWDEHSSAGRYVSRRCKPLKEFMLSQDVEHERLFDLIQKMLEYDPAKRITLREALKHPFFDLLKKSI
row,ΔTm [°C],SMILES
1,0.1,COc1cc2c(cc1OC)-c1n[nH]c(Nc3cccc(F)c3)c1C2
2,5.8,Cc1cc(Nc2nc(-c3ccccc3)nc3ccccc23)n[nH]1

row,SMILES,ΔTm [°C]
1,NCCNc1ncc(C(N)=O)c(Nc2cccc(C(F)(F)F)c2)n1,2.2

# Target: Serine/threonine-protein kinase 26 (Homo sapiens) (UniProt Q9P289)
# Sequence (Q9P289 2-416 limits assumed): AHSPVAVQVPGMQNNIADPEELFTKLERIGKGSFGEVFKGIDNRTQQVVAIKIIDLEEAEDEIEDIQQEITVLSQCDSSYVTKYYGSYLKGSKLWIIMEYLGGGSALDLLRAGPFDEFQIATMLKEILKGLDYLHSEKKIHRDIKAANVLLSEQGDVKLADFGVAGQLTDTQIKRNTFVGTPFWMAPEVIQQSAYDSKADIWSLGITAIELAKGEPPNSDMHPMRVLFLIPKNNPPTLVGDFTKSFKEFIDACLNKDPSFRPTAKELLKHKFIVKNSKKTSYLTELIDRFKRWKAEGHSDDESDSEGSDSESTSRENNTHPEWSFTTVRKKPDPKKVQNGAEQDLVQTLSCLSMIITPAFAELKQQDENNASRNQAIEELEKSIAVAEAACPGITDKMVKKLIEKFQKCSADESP
row,ΔTm [°C],SMILES
1,-0.2,COc1cc2c(cc1OC)-c1n[nH]c(Nc3cccc(F)c3)c1C2
2,9.5,Cc1cc(Nc2nc(-c3ccccc3)nc3ccccc23)n[nH]1

row,SMILES,ΔTm [°C]
1,NCCNc1ncc(C(N)=O)c(Nc2cccc(C(F)(F)F)c2)n1,0.1

# Target: Cyclin-dependent kinase 6 (Homo sapiens) (UniProt Q00534)
# Sequence (Q00534 whole entry): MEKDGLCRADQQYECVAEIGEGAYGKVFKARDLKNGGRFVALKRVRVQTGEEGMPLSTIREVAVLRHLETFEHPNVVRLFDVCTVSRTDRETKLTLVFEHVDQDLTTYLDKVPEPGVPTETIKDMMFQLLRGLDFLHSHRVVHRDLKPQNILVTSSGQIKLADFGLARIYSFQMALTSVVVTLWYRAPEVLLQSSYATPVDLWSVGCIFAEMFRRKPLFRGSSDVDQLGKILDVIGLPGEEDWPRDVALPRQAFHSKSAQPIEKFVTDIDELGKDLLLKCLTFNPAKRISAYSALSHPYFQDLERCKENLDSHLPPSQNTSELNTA
row,ΔTm [°C],SMILES
1,1.7,COc1cc2c(cc1OC)-c1n[nH]c(Nc3cccc(F)c3)c1C2
2,1.9,Cc1cc(Nc2nc(-c3ccccc3)nc3ccccc23)n[nH]1

row,SMILES,ΔTm [°C]
1,NCCNc1ncc(C(N)=O)c(Nc2cccc(C(F)(F)F)c2)n1,1.1

# Target: Cyclin-dependent kinase-like 1 (Homo sapiens) (UniProt Q00532)
# Sequence (Q00532 whole entry): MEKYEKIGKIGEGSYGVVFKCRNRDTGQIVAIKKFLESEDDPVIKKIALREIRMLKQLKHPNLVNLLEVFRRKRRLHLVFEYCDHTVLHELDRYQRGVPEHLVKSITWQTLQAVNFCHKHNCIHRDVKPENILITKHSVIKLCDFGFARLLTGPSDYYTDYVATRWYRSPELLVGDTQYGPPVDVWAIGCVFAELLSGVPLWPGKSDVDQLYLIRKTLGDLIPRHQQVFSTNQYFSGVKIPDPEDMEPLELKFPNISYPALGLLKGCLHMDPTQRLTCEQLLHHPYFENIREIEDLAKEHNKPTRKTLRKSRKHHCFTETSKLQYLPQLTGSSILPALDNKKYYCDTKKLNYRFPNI
row,ΔTm [°C],SMILES
1,-0.1,COc1cc2c(cc1OC)-c1n[nH]c(Nc3cccc(F)c3)c1C2
2,1.5,Cc1cc(Nc2nc(-c3ccccc3)nc3ccccc23)n[nH]1

row,SMILES,ΔTm [°C]
1,NCCNc1ncc(C(N)=O)c(Nc2cccc(C(F)(F)F)c2)n1,0.6
